The values that follow come from US11174260B2, “Compounds and methods for the treatment of parasitic diseases” (THE BROAD INSTITUTE, INC., priority 2017, dated 2021).

Each structure is given as a SMILES string.

For one test, the system named is P. falciparum Dd2. Kind of test: In vitro P. falciparum blood-stage culture and assay. The settings on record: Plasmodium falciparum, DD2, 72 h, 72 h incubation, SYBR Green I readout, read-out: Pf Dd2. It is filed as cell-based. As for the experimental part:
Strains of P. falciparum (Dd2, 3D7, D6, K1, NF54, V1/3, HB3, 7G8, FCB and TM90C2B) were obtained from the Malaria Research and Reference Reagent Resource Center (MR4). P. falciparum isolates were maintained with O-positive human blood in an atmosphere of 93% N2, 4% CO2, 3% O2 at 37° C. in complete culturing medium (10.4 g/L RPMI 1640, 5.94 g/L HEPES, 5 g/L albumax II, 50 mg/L hypoxanthine, 2.1 g/L sodium bicarbonate, 10% human serum and 43 mg/L gentamicin). Parasites were cultured in medium until parasitaemia reached 3-8%. Parasitaemia was determined by checking at least 500 red blood cells from a Giemsa-stained blood smear. For the compound screening, a parasite dilution at 2.0% parasitaemia and 2.0% haematocrit was created with medium. 25 μl of medium was dispensed into 384-well black, clear-bottom plates and 100 nl of each compound in DMSO was transferred into assay plates along with the control compound (mefloquine). Next, 25 μl of the parasite suspension in medium was dispensed into the assay plates giving a final parasitaemia of 1% and a final haematocrit of 1%. The assay plates were incubated for 72 h at 37° C. 10 μl of detection reagent consisting of 10×SYBR Green I (Invitrogen; supplied in 10,000× concentration) in lysis buffer (20 mM Tris-HCl, 5 mM EDTA, 0.16% (w/v) Saponin, 1.6% (v/v) Triton X-100) was dispensed into the assay plates. For optimal staining, the assay plates were left at room temperature for 24 h in the dark. The assay plates were read with 505 dichroic mirrors with 485 nm excitation and 530 nm emission settings in an Envision (PerkinElmer).

Another test concerns C. parvum. Kind of test: C. parvum in vitro EC50 assay. Conditions: Cryptosporidium parvum; C. parvum oocysts in HCT-8 cells. It is filed as cell-based. As to the method:
Human ileocecal adenocarcinoma (HCT-8) cells were obtained from ATCC and maintained in T-75 tissue culture flasks with RPMI 1640 medium with HEPES, sodium pyruvate (1 mM), and L-glutamine (ATCC) supplemented with 10% horse serum (ATCC) and 120 U/ml penicillin and 120 μg/ml streptomycin. Cells were plated into 384-well, tissue culture-treated, black-walled, clearbottom microwell plates (BD Falcon) at a density of 8,850 cells/well and allowed to grow to confluence. They were then inoculated with 5.5×10^3 primed C. parvum oocysts (Bunchgrass Farms, Deary, Id.) suspended in inoculation medium (RPMI 1640 without horse serum). Oocysts were primed for excystation by following a previously described protocol (J. Eukaryot. Microbiol. 46:56S-57S). Briefly, oocysts were treated for 10 min with 10 mM HCl at 37° C., centrifuged, and treated with a 2 mM solution of sodium taurocholate (Sigma-Aldrich) in phosphate-buffered saline (PBS) with Ca^2+ and Mg^2+. The suspension was incubated for 10 min at 16° C. and then diluted in inoculation medium and added to each well. Infected cells were incubated at 37° C. for 3 h, at which point an equal volume of growth medium containing 20% horse serum (total serum concentration of 10%). Compounds were diluted and assayed at fixed doses of 0.12, 0.37, 1.1, 3.3, and 10 μM (each concentration, n=14) for the generation of EC50 curves. In the case of final EC50 curves, three wells were left uninfected but treated with each of the corresponding concentrations of the compound to assess for background staining. All curves were generated using the log[inhibitor] versus response_variable slope equation in GraphPad Prism (equation 3), with the bottom constraint set equal to 0.

For the molecule `COc1ccc(NC(=O)N2C/C=C\CN3[C@H](CN(C)C)[C@H](c4ccc(C#Cc5ccccc5)cc4)[C@@H]3C2)cc1` [Example E4, (3Z,8R,9S,10S)-10-[(dimethylamino)methyl]-N-(4-methoxyphenyl)-9-[4-(2-phenylethynyl)phenyl]-1,6-diazabicyclo[6.2.0]dec-3-ene-6-carboxamide], the EC50 in the test with P. falciparum Dd2 was less than 50 nM; in the test on C. parvum, 68 nM.
With `COc1ccc(NC(=O)N2C[C@H](O)[C@H](O)CN3[C@H](CN(C)C)[C@H](c4ccc(C#Cc5ccccc5)cc4)[C@@H]3C2)cc1` [Example E6, (3R,4S,8R,9S,10S)-10-((dimethylamino)methyl)-3,4-dihydroxy-N-(4-methoxyphenyl)-9-(4-(phenylethynyl)phenyl)-1,6-diazabicyclo[6.2.0]decane-6-carboxamide], the EC50 with P. falciparum Dd2 is less than 50 nM; in the test on C. parvum, 95 nM.
The like results for `COc1ccc(NC(=O)N2CC[C@H](O)CN3[C@H](CN(C)C)[C@H](c4ccc(C#Cc5ccccc5)cc4)[C@@H]3C2)cc1` [Example E15, (3S,8R,9S,10S)-10-[(dimethylamino)methyl]-3-hydroxy-N-(4-methoxyphenyl)-9-[4-(2-phenylethynyl)phenyl]-1,6-diazabicyclo[6.2.0]decane-6-carboxamide] were, in that order, less than 50 nM and 33 nM.
On the same counts, the results for `COc1ccc(NC(=O)N2CCC(CO)CN3[C@H](CN(C)C)[C@H](c4ccc(C#Cc5ccccc5)cc4)[C@@H]3C2)cc1` (stereo partly drawn) [Example E26, (8R,9S,10S)-10-[(dimethylamino)methyl]-3-(hydroxymethyl)-N-(4-methoxyphenyl)-9-[4-(2-phenylethynyl)phenyl]-1,6-diazabicyclo[6.2.0]decane-6-carboxamide] are less than 50 nM and 98 nM.
Consider `COc1ccc(NC(=O)N2CCC(CN(C)C)CN3[C@H](CO)[C@H](c4ccc(C#Cc5ccccc5)cc4)[C@@H]3C2)cc1` (stereo partly drawn) [Example E27, (8R,9R,10S)-3-[(dimethylamino)methyl]-10-(hydroxymethyl)-N-(4-methoxyphenyl)-9-[4-(2-phenylethynyl)phenyl]-1,6-diazabicyclo[6.2.0]decane-6-carboxamide], for which the EC50 is less than 50 nM in the test with P. falciparum Dd2 and 134 nM with C. parvum.
For `COc1ccc(NC(=O)N2CC(CN(C)C)CCN3[C@H](CN(C)C)[C@H](c4ccc(C#Cc5ccccc5)cc4)[C@@H]3C2)cc1` (stereo partly drawn) [Example E32, (8R,9S,10S)-4,10-bis[(dimethylamino)methyl]-N-(4-methoxyphenyl)-9-[4-(2-phenylethynyl)phenyl]-1,6-diazabicyclo[6.2.0]decane-6-carboxamide], in the test on P. falciparum Dd2, the EC50 is more than 250 nM.
Same read-out and setting: then `COc1ccc(NC(=O)N2CC(CO)CCN3[C@H](CN(C)C)[C@H](c4ccc(C#Cc5ccccc5)cc4)[C@@H]3C2)cc1` (stereo partly drawn) [Example E33, (8R,9S,10S)-10-[(dimethylamino)methyl]-4-(hydroxymethyl)-N-(4-methoxyphenyl)-9-[4-(2-phenylethynyl)phenyl]-1,6-diazabicyclo[6.2.0]decane-6-carboxamide], with less than 50 nM.
For the molecule `COc1ccc(NC(=O)N2CCCC(C)N3[C@H](CN(C)C)[C@H](c4ccc(C#Cc5ccccc5)cc4)[C@@H]3C2)cc1` (stereo partly drawn) [Example E34, (8R,9S,10S)-10-((dimethylamino)methyl)-N-(4-methoxyphenyl)-2-methyl-9-(4-(phenylethynyl)phenyl)-1,6-diazabicyclo[6.2.0]decane-6-carboxamide], the EC50 with P. falciparum Dd2 was less than 50 nM.
Regarding `COc1ccc(NC(=O)N2CCCC(C)N3[C@H](CO)[C@H](c4ccc(C#Cc5ccccc5)cc4)[C@@H]3C2)cc1` (stereo partly drawn) [Example E35, (8R,9R,10S)-10-(hydroxymethyl)-N-(4-methoxyphenyl)-2-methyl-9-[4-(2-phenylethynyl)phenyl]-1,6-diazabicyclo[6.2.0]decane-6-carboxamide], the EC50 in the test on P. falciparum Dd2 is less than 50 nM.
Take `COc1ccc(NC(=O)N2C[C@@H](O)[C@@H](O)CN3C[C@H](c4ccc(C#Cc5ccccc5)cc4)[C@@H]3C2)cc1` [Example E36, (3S,4R,8R,9S)-3,4-dihydroxy-N-(4-methoxyphenyl)-9-[4-(2-phenylethynyl)phenyl]-1,6-diazabicyclo[6.2.0]decane-6-carboxamide]: the EC50 with P. falciparum Dd2 was 50 to 250 nM; in the test with C. parvum, 6 nM.
On to `COc1ccc(NC(=O)N2C[C@H](O)[C@H](O)CN3C[C@H](c4ccc(C#Cc5ccccc5)cc4)[C@@H]3C2)cc1` [Example E37, (3R,4S,8R,9S)-3,4-dihydroxy-N-(4-methoxyphenyl)-9-[4-(2-phenylethynyl)phenyl]-1,6-diazabicyclo[6.2.0]decane-6-carboxamide], for which the EC50 in the test with P. falciparum Dd2 was in the range of 50 to 250 nM.
Same read-out and setting: then `CN(C)C[C@@H]1[C@H](c2ccc(C#Cc3ccccc3)cc2)[C@@H]2CN(C(=O)Nc3ccc(OC4CC4)cc3)C[C@H](O)[C@H](O)CN12` [Example E38, (3R,4S,8R,9S,10S)-N-(4-cyclopropoxyphenyl)-10-((dimethylamino)methyl)-3,4-dihydroxy-9-(4-(phenylethynyl)phenyl)-1,6-diazabicyclo[6.2.0]decane-6-carboxamide], with less than 50 nM.
